From patent US20150361400A1, “COMPOSITIONS AND METHODS FOR MAINTAINING AND IMPROVING PANCREATIC ISLET CELL FUNCTION AND STABILITY” (WAKE FOREST UNIVERSITY HEALTH SCIENCES, priority 2013, published 2015)

Assays:
autoimmune diabetes = settings: treatment of recipient NOD.scid mice before transfer of BDC-2.5 clone; cited from earlier work
[1] = system: isolated cultured human islets; assay: RNA-Seq gene expression in isolated cultured human islets with or without Raloxifene; assay type: cell-based; settings: for % decrease in gene expression: 10 nM Raloxifene vs control
Experimental: FIG. 1: Inhibition of estrogen receptor signaling prevents dedifferentiation in cultured islets. Islets were either untreated or treated with an estrogen receptor selective estrogen receptor modulator (SERM; 10 nM Raloxifene). RNA-Seq analysis of cultured islets was performed following 4 days in culture. Raloxifene treatment was for one day on the final day of culture. Expression levels of individual genes were calculated by the method of RPKM (reads per kilobase per million mapped reads). Data is represented as the log of the ratio (Islets-Raloxifene: Islets-no treatment) where positive values indicate an increase in gene expression with Raloxifene treatment. […] (IL-8, CXXL6, SERPINB2, OLFM4).
Following isolation, the islet cell clusters are cultured in Connaught Medical Research Laboratory 1066 medium supplemented with 10 nM Raloxifene. These are the conditions described in the legend to FIG. 1.
An inflammatory gene expression profile is evoked following human islet isolation and culture and suppressed by Raloxifene treatment. Gene expression was assessed in isolated cultured human islets on multiple days following the isolation procedure. Islets were cultured in standard CMRL media with or without the addition of Raloxifene and gene expression profiles were assessed by RNA-Seq. In table 2A, the progressive increase of NFkB-target gene expression is observed over consecutive days in culture. Of note, significant increases in canonical NFkB targets (CCL2, CCL20, IL1B) as well as NFkB coordinately regulated gene clusters, such as the innate immunity gene cluster (APOL1-APOL6) were observed. In table 2B, Raloxifene treatment (10 nM) suppressed gene expression of the innate immunity gene cluster (APOL1-APOL6) which is typically observed to increase with the isolation and culture of human islets. Gene expression was assessed with RNA-Seq and quantification of gene transcripts is represented as RPKM ([…]). Note, three genes (APOL1, APOL2, and APOL6) in the innate immunity gene cluster were each reduced by Raloxifene treatment.

SMILES	onset of diabetes (disease) (autoimmune diabetes)	endocrine phenotype of isolated islet cultures [1]	gene expression of the innate immunity gene cluster (APOL1-APOL6) ([1]; 10 nM Raloxifene)	% decrease in gene expression ([1]; APOL1 gene)	RPKM (Ral) ([1]; APOL1 gene, 10 nM Raloxifene, control 2.1)	% decrease in gene expression ([1]; APOL2 gene)	RPKM (Ral) ([1]; APOL2 gene, 10 nM Raloxifene, control 13.6)	% decrease in gene expression ([1]; APOL6 gene)	RPKM (Ral) ([1]; APOL6 gene, 10 nM Raloxifene, control 1.5)	expression of housekeeping genes ([1]; GAPDH, ACTB, B2M, 10 nM, one day on final day of 4 days culture)	increase in expression of inflammatory genes and genes associated with a dedifferentiation profile ([1]; IL-8, CXXL6, SERPINB2, OLFM4, 10 nM, one day on final day of 4 days culture)	expression of genes associated with a differentiated phenotype ([1]; SYT8, INS, 10 nM, one day on final day of 4 days culture)
CCN1C=CC=C/C1=C1/C2=NC(=C(c3cccc[n+]3CC)C3=NC(=C(c4cccc[n+]4CC)c4ccc([n-]4)C(c4cccc[n+]4CC)=C4C=CC1=N4)C=C3)C=C2.[Cl-].[Cl-].[Cl-].[Cl-].[Cl-].[Mn+3] [AEOL-10113]	significantly delayed or prevented altogether	–	–	–	–	–	–	–	–	–	–	–
O=C(c1ccc(OCCN2CCCCC2)cc1)c1c(-c2ccc(O)cc2)sc2cc(O)ccc12 [Raloxifene]	–	preserved the endocrine phenotype	suppressed	15%	1.8 RPKM	68%	4.3 RPKM	41%	0.9 RPKM	without effect	prevented	increased expression
